Data from patent US6906081B2, “Use of dual H3/M2 antagonists in the treatment of cognition deficit disorders” (Schering Corporation, priority 2001, dated 2005).

Assays:
H3 receptor = target: T1, H3 receptor (Cavia porcellus, UniProt Q9JI35); experiment: H3 receptor binding, displacement of radiolabeled Nα-methylhistamine from guinea pig brain membranes; settings: affinity for the H3 receptor
T1 construct: from tissue; host or cells: guinea pig brain membranes
From the text: Compounds can readily be evaluated to determine activity at H3 receptors by known methods, including the guinea pig brain membrane assay and the guinea pig neurogenic ileum contraction assay, both of which are described in U.S. Pat. No. 5,352,707. Another useful assay utilizes rat brain membranes and is described by West et al., “Identification of Two H3-Histamine Receptor Subtypes,” Molecular Pharmacology, Vol. 38, pages 610-613 (1990).
A particularly useful screening assay measures binding to sites in guinea pig brain membranes. This test is described in detail by Korte et al., “Characterization and Tissue Distribution of H3 Histamine Receptors in Guinea Pigs by N^α-Methylhistamine,” in Biochemical and Biophysical Research Communications, Vol. 168, pages 979-986 (1990), and quantifies the displacement of bound radiolabeled N^α-methylhistamine from tissues by candidate compounds. Results are expressed as “Ki” values, in nanoMolar (nM) units, which values can be considered as being dissociation constants for the H3 antagonist on the H3 receptor system, or an index of antagonist affinity for the receptor. In general, Ki values less than about 200 nM are considered necessary for an agent to be useful as an H3 antagonist in the invention.

[1] = target: T2, cloned human m2 muscarinic receptor (Homo sapiens, UniProt P08172); experiment: Binding to cloned human m2 muscarinic receptor (3H-QNB, CHO cell membranes); settings: affinity for the m2 receptor; 3H-QNB displacement
T2 sequence (P08172 1-466): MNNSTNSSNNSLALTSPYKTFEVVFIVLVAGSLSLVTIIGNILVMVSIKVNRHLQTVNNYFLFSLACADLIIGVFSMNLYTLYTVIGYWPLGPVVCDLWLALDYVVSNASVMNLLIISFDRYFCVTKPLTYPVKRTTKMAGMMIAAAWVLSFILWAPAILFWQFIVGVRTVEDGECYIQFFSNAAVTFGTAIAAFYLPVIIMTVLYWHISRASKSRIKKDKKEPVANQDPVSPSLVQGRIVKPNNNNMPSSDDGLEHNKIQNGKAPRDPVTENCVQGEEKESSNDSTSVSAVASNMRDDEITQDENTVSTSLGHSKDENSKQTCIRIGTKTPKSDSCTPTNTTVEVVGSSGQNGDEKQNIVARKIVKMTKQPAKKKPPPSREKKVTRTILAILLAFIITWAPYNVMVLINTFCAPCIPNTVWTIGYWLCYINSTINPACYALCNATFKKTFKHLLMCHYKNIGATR

T1 sequence (Q9JI35 whole entry): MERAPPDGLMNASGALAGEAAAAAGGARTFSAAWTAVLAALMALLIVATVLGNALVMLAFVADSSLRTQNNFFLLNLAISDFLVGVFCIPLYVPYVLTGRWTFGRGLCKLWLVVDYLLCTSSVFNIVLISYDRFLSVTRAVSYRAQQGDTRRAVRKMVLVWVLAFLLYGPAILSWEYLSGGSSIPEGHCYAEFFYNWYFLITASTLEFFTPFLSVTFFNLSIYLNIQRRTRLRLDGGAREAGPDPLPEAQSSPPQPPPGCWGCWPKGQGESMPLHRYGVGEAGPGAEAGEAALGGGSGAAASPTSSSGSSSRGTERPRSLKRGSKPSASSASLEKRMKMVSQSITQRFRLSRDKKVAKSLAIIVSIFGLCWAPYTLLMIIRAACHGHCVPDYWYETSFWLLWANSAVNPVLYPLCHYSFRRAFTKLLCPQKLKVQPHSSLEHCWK

SMILES	Ki (H3 receptor) [nM]	Ki [1] [nM]
CN(C)CCCOc1ccc(CN2CCC(N3CCC(C(=O)c4ccc(S(=O)(=O)c5ccc6c(c5)OCO6)cc4)CC3)CC2)cc1 [Compound 10]	15	0.019
CCCCOc1ccc(CN2CCC(N3CCC(C(=O)c4ccc(S(=O)(=O)c5ccc6c(c5)OCO6)cc4)CC3)CC2)cc1 [Compound 12]	170	4.8
CCN(CC)CCOc1ccc(CN2CCC(C3CCN(Cc4ccc(C(=O)NC(C)C)cc4)CC3)CC2)cc1 [Compound 1]	18	0.17
CCCCOc1ccc(CN2CCC(N3CCC(C4(c5ccc(S(=O)(=O)c6ccc7c(c6)OCO7)cc5)OCCO4)CC3)CC2)cc1 [Compound 15]	43	0.17
O=C(NCC1CC1)c1ccc(CN2CCC(C3CCN(Cc4ccc(C(=O)NCC5CC5)cc4)CC3)CC2)cc1 [Compound 3]	500	0.125
CCN(CC)CCOc1ccc(CN2CCC(N3CCC(C4(c5ccc(S(=O)(=O)c6ccc7c(c6)OCO7)cc5)OCCO4)CC3)CC2)cc1 [Compound 14]	2	0.7
CN(C)CCCOc1ccc(CN2CCC(C3CCN(Cc4ccc(S(=O)(=O)c5ccc6c(c5)OCO6)cc4)CC3)CC2)cc1 [Compound 8]	6	0.05
Cc1ccccc1C(=O)N1CCC(C2CCN(Cc3ccc(S(=O)(=O)c4ccc5c(c4)OCO5)cc3)CC2)CC1 [Compound 6]	160	1.2
CCN(CC)CCOc1ccc(CN2CCC(N3CCC(C(=O)c4ccc(S(=O)(=O)c5ccc6c(c5)OCO6)cc4)CC3)CC2)cc1 [Compound 11]	8	0.018
CCCS(=O)(=O)N1CCC(N2CCC(C3(c4ccc(S(=O)(=O)c5ccc6c(c5)OCO6)cc4)OCCO3)CC2)CC1 [Compound 2]	140	0.01

Further lines, results first:

Ki (H3 receptor) [nM]	Ki [1] [nM]	SMILES
620	3.4	c1ccc(CN2CCC(C3CCN(Cc4ccccc4)CC3)CC2)cc1 [Compound 4]
12	0.8	CN(C)CCCOc1ccc(CN2CCC(N3CCC(C4(c5ccc(S(=O)(=O)c6ccc7c(c6)OCO7)cc5)OCCO4)CC3)CC2)cc1 [Compound 13]
430	2.6	CC(C)(C)OC(=O)N1CCC(C2CCN(Cc3ccc(S(=O)(=O)c4ccc5c(c4)OCO5)cc3)CC2)CC1 [Compound 5]
22	0.07	CCN(CC)CCOc1ccc(CN2CCC(C3CCN(Cc4ccc(S(=O)(=O)c5ccc6c(c5)OCO6)cc4)CC3)CC2)cc1 [Compound 7]
290	0.22	O=C(NCC1CC1)c1ccc(CN2CCC(C3CCN(Cc4ccc(S(=O)(=O)c5ccc6c(c5)OCO6)cc4)CC3)CC2)cc1 [Compound 9]
